Measured values reported in ChEMBL document CHEMBL1158260, “Six lignans from Phyllanthus myrtifolius” (J Nat Prod, 1996).
The source made the active and inactive calls. No cut-off for these calls is given here.

Legend:
[1] = biological target: Human immunodeficiency virus type 1 reverse transcriptase (Human immunodeficiency virus 1) (UniProt Q72547); assay: Increase in HIV1 reverse transcriptase activity at 1.89 uM
[2] = biological target: Human immunodeficiency virus type 1 reverse transcriptase (Human immunodeficiency virus 1) (UniProt Q72547); assay: Increase in HIV1 reverse transcriptase activity at 18.9 uM relative to control
[3] = biological target: Human immunodeficiency virus type 1 reverse transcriptase (Human immunodeficiency virus 1) (UniProt Q72547); assay: Inhibition of HIV1 reverse transcriptase at 10 uM
[4] = biological target: Human immunodeficiency virus type 1 reverse transcriptase (Human immunodeficiency virus 1, UniProt Q72547); assay: (§1) Inhibition of HIV1 reverse transcriptase
[5] = Inhibition of human DNA polymerase alpha
[6] = biological target: Human immunodeficiency virus type 1 reverse transcriptase (Human immunodeficiency virus 1) (UniProt Q72547); assay: as §1

Activity [6]	SMILES	IC50 [4] [µM]	IC50 [5] [µM]	also measured
	COc1cc2c(O[C@@H]3O[C@H](CO)[C@@H](O)[C@H](O)[C@H]3O)c(CO)c(C)c(-c3ccc4c(c3)OCO4)c2cc1OC			Activity [1]: 210%; Activity [2]: 65%
	COc1cc2cc3c(c(-c4ccc5c(c4)OCO5)c2cc1OC)C(=O)OC3OC (centres undefined)			inhibition [3]: 20%
	COCc1cc2cc(OC)c(OC)cc2c(-c2ccc3c(c2)OCO3)c1C=O [PHYLLAMYRICIN B]	3.5	289	
inactive	COc1cc2c(O[C@@H]3O[C@H](CO)[C@@H](O)[C@H](O)[C@H]3O)c(CO)c(CO)c(-c3ccc4c(c3)OCO4)c2cc1OC			
	COc1cc2cc3c(c(-c4ccc5c(c4)OCO5)c2cc1OC)COC3=O [RETROJUSTICIDIN B]	5.5	989	
inactive	COc1cc(-c2c(C)c(CO)c(O[C@@H]3O[C@H](CO)[C@@H](O)[C@H](O)[C@H]3O)c3cc(OC)c(OC)cc23)ccc1O			
